Like-named read-outs stand apart in the source and are kept apart here. One block for each compound: values may come before it.
Columns and labels:
[1] = system: methicillin-resistant S. aureus (MRSA, ATCC 33591); test: Minimum inhibitory concentration (MIC) assay, MRSA; assay type: cell-based, Staphylococcus aureus; conditions: for MIC: Staphylococcus aureus
Protocol: (§1) Minimum inhibitory concentrations (MICs) assay.^2
(§2) All compounds were tested against six different bacteria strains: methicillin-resistant S. aureus (MRSA, ATCC 33591), E. coli (ATCC 25922), methicillin-resistant S. epidermidis (MRSE, RP62A), K. pneumoniae (ATCC 13383), vancomycin-resistant Enterococcus faecalis (VREF, ATCC 700802), P. aeruginosa (ATCC 27853). One colony of each bacteria was inoculated in 4 mL TSB buffer at 37° C. overnight, which was then diluted 100 times, and the bacteria were allowed to grow to the mid-logarithmic phase. 50 μL hydantoin compounds in 2-fold serial dilution of TSB were added in the 96-well plate, then 50 μL diluted bacterial in TSB medium (1×10^6 CFU/mL) was added to each well. After 16 h of incubation at 37° C., the absorption at 600 nm wavelength on a Biotek Synergy HT microtiter plate reader was recorded. Minimum inhibitory concentrations were determined as the lowest concentrations that inhibited bacteria growth completely.

[2] = system: methicillin-resistant S. epidermidis (MRSE, RP62A); test: Minimum inhibitory concentration (MIC) assay, MRSE; assay type: cell-based, Staphylococcus epidermidis; conditions: Gram positive, 16 h incubation; for MIC: Staphylococcus epidermidis, MRSE, read-out: MIC (μg/mL) MRSE
Protocol: as §1, §2

[3] = system: vancomycin-resistant Enterococcus faecalis (VREF, ATCC 700802); test: Minimum inhibitory concentration (MIC) assay, VREF; assay type: cell-based; conditions: 16 h incubation; for MIC (μg/mL) VREF: Gram positive; for MIC: Enterococcus faecalis, ATCC700802, Gram positive, read-out: MIC (μg/mL) VREF
Protocol: as §1, §2

[4] = system: E. coli (ATCC 25922); test: Minimum inhibitory concentration (MIC) assay, E. coli; assay type: cell-based, Escherichia coli; conditions: 16 h incubation; for MIC (μg/mL) E. coli: Gram negative; for MIC: Escherichia coli, ATCC25922, Gram negative, read-out: MIC (μg/mL) E. coli
Protocol: as §1, §2

[5] = system: P. aeruginosa (ATCC 27853); test: Minimum inhibitory concentration (MIC) assay, P. aeruginosa; assay type: cell-based, Pseudomonas aeruginosa; conditions: Gram negative, ATCC 27853, 16 h incubation; for MIC: Pseudomonas aeruginosa, ATCC27853, read-out: MIC (μg/mL) P.A.
Protocol: as §1, §2

[6] = system: K. pneumoniae (ATCC 13383); test: Minimum inhibitory concentration (MIC) assay, K. pneumoniae; assay type: cell-based, Klebsiella pneumoniae; conditions: 16 h incubation; for MIC (μg/mL) K.P.: Gram negative; for MIC: Klebsiella pneumoniae, ATCC13383, Gram negative, read-out: MIC (μg/mL) K.P.
Protocol: as §1, §2

[7] = system: red blood cells (RBCs) of mice; test: Hemolytic assay; assay type: cell-based
Protocol: Fresh red blood cells (RBCs) of mice were washed with 1×PBS buffer and centrifuged 10 min at 3500 rpm for 3 times until the supernatant was clear, then RBCs were diluted into 5% v/v suspension in 1×PBS. 50 μL compounds in PBS were 2-fold serially diluted in a 96-well plate, and incubated with 50 μL RBCs suspension for 1 h at 37° C. The mixture was then centrifuged for 10 min at 3500 rpm. Subsequently, 30 μL of the supernatant was added to 100 μL PBS, then the absorbance of mixture was read on a Biotek Synergy HT plate reader at 540 nm. The hemolytic activity was calculated by the formula % hemolysis=(Abssample−AbsPBS)/(AbsTriton−AbsPBS)×100%. 1% Triton X-100 were used as the positive control and 1×PBS buffer was used as the negative control.

[8] = system: panel of Gram-positive and Gram-negative bacteria; test: Antimicrobial activity against the whole panel of bacteria; assay type: cell-based; conditions: for antibacterial activity of compounds with HPLC RT values less than 26 min: statement relating activity to retention time; for antimicrobial activity across the tested bacterial strains: all tested strains
Protocol: as §1, §2

[9] = system: MRSA-induced lung inflammation; test: Rat model of MRSA-induced pneumonia, pathological analysis (H&E); assay type: in vivo; conditions: 10 mg/kg i.v.
Protocol: The rat model of MRSA-induced pneumonia.^4, 5
The protocol of animal studies was approved by the institutional committee for animal care of Nanjing University, and the experiments were conducted following the regulation of the National Ministry of Health of China. In Brief, male Wistar rats (6-8 weeks, ˜200 g in average weight) were subjected to fast for 12 h. Next, rats were anesthetized by intraperitoneal administration of 0.35 g/kg of chloral hydrate. To induce MRSA pneumonia, the trachea of rats were exposed, to which 100 μL PBS containing 2×10^6 CFU/mL MRSA in PBS was slowly injected. The rats were retained upright for 1 min, and the cut was sealed. The MRSA infection was allowed to develop for 24 h.
The hydantoin compound 22 or vancomycin were used as antibiotics in the study. In brief, a dose of 10 mg/kg of the drug was injected to the tested rats intravenously. On the day of 3 and 5, rats were sacrificed, and lung sections were stained with hematoxylin and eosin (H&E), and their morphology was investigated under a light microscope at 100× magnification. The existence (indicated by the infiltration of neutrophils) and the extent of possible inflammatory response (indicated by the integrity of the alveolar structure and endothelium cilium) were recorded from at least five randomly picked sections by an experienced physician.

[10] = Gram positive, ATCC 33591, 16 h incubation
[11] = hemolytic activity, mouse RBCs, 1 h at 37° C.
[12] = Gram positive, ATCC 33591, 16 h incubation, read-out: MIC (μg/mL) MRSA

Structure (SMILES): CN[C@H](CC(C)C)C(=O)N[C@H]1C(=O)N[C@@H](CC(N)=O)C(=O)N[C@H]2C(=O)N[C@H]3C(=O)N[C@H](C(=O)N[C@H](C(=O)O)c4cc(O)cc(O)c4-c4cc3ccc4O)[C@H](O)c3ccc(c(Cl)c3)Oc3cc2cc(c3O[C@@H]2O[C@H](CO)[C@@H](O)[C@H](O)[C@H]2O[C@H]2C[C@](C)(N)[C@H](O)[C@H](C)O2)Oc2ccc(cc2Cl)[C@H]1O [vancomycin, reference compound]
lung inflammation (H&E staining), day not given [9]: alleviated condition

Structure (SMILES): CCCCCCCCCCCCCC(=O)N[C@@H](CCCCN)CN1CC(=O)N(CC)C1=O [Compound 3, (S)—N-(6-amino-1-(3-ethyl-2,4-dioxoimidazolidin-1-yl)hexan-2-yl)tetradecanamide]
MIC [1, 12]: 6.25 µg/mL
MIC [2]: 6.25 µg/mL
MIC [3]: 6.25 µg/mL
MIC [4]: 3.12 µg/mL
MIC (μg/mL) P.A. [5]: 12.5 µg/mL
MIC [5]: 12.5 µg/mL
MIC [6]: 6.25 µg/mL
HC50 [7, 11]: 90 µg/mL
antimicrobial activity across the tested bacterial strains [8]: comparable activity to nitrofurantoin against most strains

Structure (SMILES): CCCCCCCCCC(=O)N[C@@H](CCCCN)CN1CC(=O)N(C2CCCCC2)C1=O [Compound 9, (S)—N-(6-amino-1-(3-cyclohexyl-2,4-dioxoimidazolidin-1-yl)hexan-2-yl)decanamide]
MIC [1, 12]: 25 µg/mL
MIC [2]: > 50 µg/mL
MIC [3]: > 50 µg/mL
MIC [4]: 12.5 µg/mL
MIC [5]: > 50 µg/mL
MIC [6]: 25 µg/mL
antimicrobial activity across the tested bacterial strains [8]: starts to show activity toward a few bacterial strains
antibacterial activity of compounds with HPLC RT values less than 26 min [8]: no apparent antibacterial activity

Structure (SMILES): CCCCCCCCCCCC(=O)N[C@@H](CCCCN)CN1CC(=O)N(CCCC)C1=O [Compound 6, (S)—N-(6-amino-1-(3-butyl-2,4-dioxoimidazolidin-1-yl)hexan-2-yl)dodecanamide]
MIC [1, 12]: 12.5 µg/mL
MIC [2]: 25 µg/mL
MIC [3]: 25 µg/mL
MIC [4]: 6.25 µg/mL
MIC [5]: 25 µg/mL
MIC [6]: 12.5 µg/mL
HC50 [7, 11]: 80 µg/mL
antibacterial activity of compounds with HPLC RT values less than 26 min [8]: no apparent antibacterial activity

Now from value to compound, other results behind:

MIC (μg/mL) MRSA [1, 10]: 25 µg/mL
MIC of MRSA ([1]; Table 2): 25 µg/mL
MIC (μg/mL) MRSE [2]: 25 µg/mL
MIC (μg/mL) VREF [3]: 25 µg/mL
MIC (μg/mL) E. coli [4]: 12.5 µg/mL
MIC (μg/mL) P.A. [5]: 12.5 µg/mL
MIC (μg/mL) K.P. [6]: 12.5 µg/mL
Structure (SMILES): CCCCCCCCCCCC(=O)N[C@@H](CCCCN)CN1CC(=O)N(c2ccc(OC)cc2)C1=O [Compound 18, (S)—N-(6-amino-1-(3-(4-methoxyphenyl)-2,4-dioxoimidazolidin-1-yl)hexan-2-yl)dodecan amide]
HC50 [7]: 200 µg/mL
antibacterial activity of compounds with HPLC RT values less than 26 min [8]: no apparent antibacterial activity

MIC ([1]; Table 2, read-out: MIC of MRSA): 6.25 µg/mL
MIC [2]: 6.25 µg/mL
MIC [3]: 12.5 µg/mL
MIC [4]: 6.25 µg/mL
MIC [5]: 6.25 µg/mL
MIC [6]: 6.25 µg/mL
Structure (SMILES): CCCCCCCCCC(=O)N[C@@H](CCCCN)CN1CC(=O)N(c2cccc(Cl)c2)C1=O [Compound 21, (S)—N-(6-amino-1-(3-(3-chlorophenyl)-2,4-dioxoimidazolidin-1-yl)hexan-2-yl)decanamide]
HC50 [7, 11]: 100 µg/mL

MIC [1, 12]: 6.25 µg/mL
MIC [2]: 6.25 µg/mL
MIC [3]: 12.5 µg/mL
MIC [4]: 6.25 µg/mL
MIC [5]: 12.5 µg/mL
MIC [6]: 6.25 µg/mL
Structure (SMILES): CCCCCCCCCCCC(=O)N[C@@H](CCCCN)CN1CC(=O)N(C2CCCCC2)C1=O [Compound 10, (S)—N-(6-amino-1-(3-cyclohexyl-2,4-dioxoimidazolidin-1-yl)hexan-2-yl)dodecanamide]
HC50 [7, 11]: 100 µg/mL

MIC (μg/mL) MRSA [1, 10]: 6.25 µg/mL
MIC of MRSA ([1]; Table 2): 6.25 µg/mL
MIC (μg/mL) MRSE [2]: 6.25 µg/mL
MIC (μg/mL) VREF [3]: 12.5 µg/mL
MIC (μg/mL) E. coli [4]: 6.25 µg/mL
MIC (μg/mL) P.A. [5]: 12.5 µg/mL
MIC (μg/mL) K.P. [6]: 6.25 µg/mL
Structure (SMILES): CCCCCCCCCC(=O)N[C@@H](CCCCN)CN1CC(=O)N(C23CC4CC(CC(C4)C2)C3)C1=O [Compound 13, N—((S)-1-(3-((3R,5R,7R)-adamantan-1-yl)-2,4-dioxoimidazolidin-1-yl)-6-aminohexan-2-yl) decanamide]
HC50 [7]: 125 µg/mL
antimicrobial activity across the tested bacterial strains [8]: exhibits decent activity across the panel of bacteria

From US10793526B2, “Hydantoin derivative compounds, methods of use and methods of treatment” (University of South Florida, priority 2016, dated 2020)
